One experiment has as its system MOR. To be noted: brain homogenates, inverse agonists; ref Wang et al., 2004; cited from earlier work.
In the next experiment the target is KOR (Mus musculus, UniProt P33534). The experiment in a line: Antagonism of U69,593-stimulated [35S]GTPγS binding in WT striatum. It is filed as biochemical. Background: Binding of GTPγS marks nucleotide exchange on a G protein.

As for `O=C1/C(=C/c2ccccc2)C[C@@]2(O)[C@H]3Cc4ccc(O)c5c4[C@@]2(CCN3CC2CC2)[C@H]1O5` [BNTX], in the experiment on MOR, the “suppression of MOR basal signaling activity” value is “less than 10%”.

As for `Oc1ccc2c3c1O[C@H]1c4[nH]c5c(c4C[C@@]4(O)[C@@H](C2)N(CC2CC2)CC[C@]314)C[C@@]1(O)[C@H]2Cc3ccc(O)c4c3[C@@]1(CCN2CC1CC1)[C@H]5O4` [NorBNI, Norbinaltorphimine], the concentration for half-maximal inhibition (IC50) (as a rule, the concentration needed to halve the response being measured) on KOR was found to be 6 ± 1.6 nM. Besides, the “blockade of U69,593 stimulated G protein activation” value at KOR (antagonist 10 μM, increasing concentrations of U69,593, WT) is “fully blocks”. The “% competition” value on KOR (vs 10 μM U69,593, WT striatum, n=3) is on record as 99 ± 7%.

The values are drawn from paper PMC4655192 (Neuropharmacology, 2015).
